Assay results reported in patent US4927808A, “γ-L-glutamyl-L-cysteine ethyl ester and pharmaceutical compositions containing the same as an effective ingredient” (Teijin Limited, priority 1986, dated 1990).
Read-outs that look alike come from different tables or passages of the source.

Legend:
liver cells [1] = experiment: Action to increase the glutathione levels in the liver cells (primary cultured hepatocytes); type: cell-based, mice; conditions: 1 mM, 100 = before addition
Procedure: Hepatocyte (sample) was prepared according to the method of Nakamura et al. published in the Protein, Nucleic Acid, and Enzyme, vol. 24, pp 55-76 (1981), partly adopting the method of Wang et al. reported in the In Vitro, vol. 21, pp 526-530 (1985). The liver of mice was purfused with 0.05% collagenase, and cells were collected by centrifugation, and were further centrifuged with percoll to collect the parenchymal hepatocytes. The obtained hepatocytes were dispersed in the Williams' medium E containing 10% bovine fetal serum, dexamethasone (10^-6 M), insulin (1 μg/ml), and antibiotic, and were inoculated into the culture plate at a density of 1×10^5 cells/0.2 ml/cm^2. After unattached cells were removed once 1.5 hours later, the cultivation was continued at 37° C. in an atomosphere of 5% CO2 -95% air. The compound of this invention was added to the culture system to a concentration of 1 mM to measure the time lapsed changes of the cellular glutathione level according to the method reported by Owens and Belcher, Biochem. J., vol. 94, pp 705-711 (1965) and Tietze, Anal. Biochem., vol. 27, pp 502-522 (1969). The similar measurements were also made without the addition of the compound for comparison.

[2] = test system: experimentally developed cataract induced by L-buthionine sulfoximine; experiment: Protective effect on experimental cataract induced by L-buthionine sulfoximine; type: in vivo, mice; conditions: 16th day after birth
Description: The cataract development rate in the table means the ratio of the experimental animals developing cataract to all the animals examined (11 to 12 mice per group) and the cataractous eye rate means the ratio of cataractous eyes to the whole number of eyes examined.

liver cells [3] = experiment: Recovery of cellular glutathione levels after decrease by D,L-buthionine sulfoximine and removal of the inhibitor; type: cell-based, mice; conditions: untreated = 100
Procedure: (§1) D, L-buthionine sulfoximine was added to the cultured liver cells to a density of 0.5 mM and cultivation was carried on for 16 hours. […] The changes of cellular glutathione levels were measured at that time. Thereafter the compounds studied were removed from the respective cultures whose culture media were then replaced with new ones containing carbon tetrachloride at a density of 0.5 μl/ml. After 1-hour cultivation, the action to prevent the necrosis of liver cells was examined by measuring the GPT activity of the respective culture supernatants and Trypan Blue staining test.
(§2) In Table 3, the changes of cellular glutathione levels are expressed by relative values based on the untreated value set at 100 and the action to prevent the necrosis of liver cells is indicated by the GPT activity of the culture supernatant and survival rate.

ICR male mice [4] = experiment: Recovery of tissue glutathione levels in mice pretreated with L-buthionine sulfoximine; type: in vivo; conditions: 2.5 mmol/kg s.c. 4 times, day after L-buthionine sulfoximine 4 mmol/kg x4
Procedure: ICR male mice (9-day old) were given L-buthionine sulfoximine in dosage of 4 mmol/kg four times at an interval of 2.5 hours to decrease their tissue glutathione levels beforehand. The next day, the mice were given subcutaneously 2.5 mmol/kg of the present compound or saline 4 times at an interval of 2.5 hours. Glutathione monoethyl ester (GSHOET) was also given likewise in dosage of 2.5 mmol/kg as a control. The contents of glutathione in the livers and kidneys were measured according to the methods described in Example 6.

mouse newborns = conditions: for Effect on increment of animals' body weight suppressed by the toxicity of BSO: mouse, in vivo; for Surviving rate: after the ending of administration
Procedure: Experimental cataract was prepared according to the method of Calvin et al., Science, vol. 233, pp 553-555 (1986). More particularly, L-buthioninesulfoximine was administered subcutaneously to the ICR male mice at a dose of 4 mmol/kg for 3 successive days from the 9th day to the 11th day after birth every 2.5 hours 4 times a day to cause cataract. The rate of cataractgenesis was determined on the 16th day after birth. The test compounds were also given subcutaneously for 3 days from the 9th day to the 11th day after birth 4 times a day 1 hour before the administration of L-buthionine sulfoximine and thereafter the test compounds studied only were subcutaneously given 4 times a day at an interval of 2.5 hours on the consecutive 12th and 13th days after birth and the protective effect of the test compound on cataract formation was examined on the 16th day after birth. As the control compounds, glutathione, glutathione monoethyl ester, and γ-L-glutamyl-L-cysteine were also examined.
Acute toxicity of the present compound was examined where it is administered according to the schedule of Example 9 and compared with there of controls, glutathione, glutathione monoethyl ester, and γ-L-glutamyl-L-cysteine.

liver cells [5] = experiment: Prevention of necrosis of liver cells by carbon tetrachloride (GPT activity, Trypan Blue staining); type: cell-based, mice; conditions: 1 mM for 2 hours after D,L-buthionine sulfoximine removal, then carbon tetrachloride 0.5 μl/ml for 1 hour; for Survival rate: Trypan Blue
Procedure: as §1, §2

ICR male mice [6] = experiment: Action to increase tissue glutathione levels in mice; type: in vivo; conditions: 9-day old mice
Procedure: ICR male mice (9-day old) were subcutaneously given 2.5 mmol/kg of the compound of this invention (r-Glu-Cys OET) or control compounds (glutathione (GSH), γ-L-glutamyl-L-cysteine (r-Glu-Cys)) four times at 2.5-hour intervals. The mice were dissected and their livers and kidneys were removed before the administration and every 2.5 hour after the administration to have their glutathione (GSH) level determined. […]

ICR male mice [7] = experiment: Detoxification of renal toxicity induced by cisplatin (BUN); type: in vivo; conditions: cisplatin 20 mg/kg i.p. + compound 2.5 mmol/kg i.p. 4 times a day for 5 days; one week after cisplatin
Description: The control groups were given saline instead of the present compound.

ICR male mice [8] = experiment: Mitigation of decrease of tissue glutathione levels, compound and L-buthionine sulfoximine given alternately to mice; type: in vivo; conditions: 2.5 mmol/kg s.c. alternately with L-buthionine sulfoximine 4 mmol/kg; versus saline
Procedure: The compound of this invention was administered in the same way as Example 6, and L-buthionine sulfoximine (BSO) was administered likewise in dosage of 4 mmol/kg one hour after every administration of said compound. The contents of glutathione in the livers and kedneys were measured according to the methods described in Example 6 every 2.5 hours after the initial administration of the present compound. As controls, saline was administered in place of the present compound to take the similar measurements. FIGS. 2A and 2B shown the results.

liver cells [9] = experiment: Recovery of glutathione levels of liver cells after carbon tetrachloride treatment; type: cell-based, mice; conditions: 100 = before treatment
Procedure: After carbon tetrachloride was added to the cultured liver cells at a concentration of 0.5 μl/ml, culture was continued for 1 hour. […] One hour later, the change of the cellular glutathione level was measured.

liver cells [10] = experiment: Mitigation of decrease in glutathione levels in liver cells on coexistence with D,L-buthionine sulfoximine; type: cell-based, mice; conditions: 13 hours later, 100 = before addition
Procedure: The cultured liver cells were cultured for 13 hours after the addition of D,L-buthionine sulfoximine to the concentration of 0.3 mM and the present compound to the concentration of 1 mM and then the levels of cellular glutathione were measured. The similar measurements were made on the controls in which nothing was added and in which D,L-buthionine sulfoximine only was added.

[11] = cited from earlier work
[12] = L-buthionine sulfoximine + compound 1.25 mmol/kg s.c.
[13] = L-buthionine sulfoximine + compound 2.50 mmol/kg s.c.
[14] = 1 mM added for 2 hours after removal of D,L-buthionine sulfoximine (0.5 mM, 16 hours)
[15] = 2.5 mmol/kg subcutaneously four times at 2.5-hour intervals
[16] = L-buthionine sulfoximine + compound 1.25 mmol/kg
[17] = L-buthionine sulfoximine + compound 2.5 mmol/kg
[18] = L-buthionine sulfoximine 4 mmol/kg alone

For `CCOC(=O)[C@H](CS)NC(=O)CC[C@H](N)C(=O)O` [γ-L-glutamyl-L-cysteine ethyl ester], the “Cellular glutathione level (relative value)” value (liver cells [1]; 0.5 hours) was 140, the “Cellular glutathione level (relative value)” value (liver cells [1]; 1 hour) was 170 and the “Cellular glutathione level (relative value)” value (liver cells [1]; 2 hours) was 200. For the same compound, the Cataract development rate [2, 12] was 50.0%, the Cataractous eye rate [2, 12] was 41.7% and the Cataract development rate [2, 13] was 0%. The Cataractous eye rate [2, 13] was 0%, the “Cellular glutathion level (relative value)” value (liver cells [3]; [14]) was 50 and the “Recovery of tissue glutathione level, kidney (FIG. 3B)” value (ICR male mice [4]) was “far more excellent effect in making the tissular glutathion level recover to the normal level as compared with glutathione monoethyl ester”. The “Recovery of tissue glutathione level, liver (FIG. 3A)” value (ICR male mice [4]) was “same effectiveness as glutathione monoethyl ester”, the “Effect on increment of animals' body weight suppressed by the toxicity of BSO” value (“Effect on increment” for short) (mouse newborns) was “showed an effect to mitegate suppressed increment of animals' body weight” and the “GPT activity of culture supernatant” value (liver cells [5]) was 3 until/ml. The Survival rate (liver cells [5]) was 100%, the “Tissue glutathione level, kidney (FIG. 1B)” value (ICR male mice [6]; [15]) was “far more excellent effect than glutathione and γ-L-glutamyl-L-cysteine in increasing the tissue glutathione levels” and the “Tissue glutathione level, liver (FIG. 1A)” value (ICR male mice [6]; [15]) was “far more excellent effect than glutathione and γ-L-glutamyl-L-cysteine in increasing the tissue glutathione levels”. For the same compound, the “SH levels in eyeballs, DTNB method (FIG. 1C)” value (ICR male mice [6]; 5 mmol/kg) was “improve the SH levels remarkably”, the BUN (ICR male mice [7]) was 35.7 mg/dL and the “Tissue glutathione level, kidney (FIG. 2B)” value (ICR male mice [8]) was “mitigate the decrease of tissue glutathione levels”. The “Tissue glutathione level, liver (FIG. 2A)” value (ICR male mice [8]) was “mitigate the decrease of tissue glutathione levels”, the “Cellular glutathione level (relative value)” value (liver cells [9]; 1 mM added after removal of carbon tetrachloride, one hour later) was 67 and the “Cellular glutathione level (relative value)” value (liver cells [10]; coexistence of D,L-buthionine sulfoximine 0.3 mM and compound 1 mM) was 30.
In the case of `CCCCS(=N)(=O)CCC(N)C(=O)O` [D,L-buthionine sulfoximine, D,L-buthionine-sulfoximine, reference compound], the “Cellular glutathion level (relative value)” value (liver cells [3]; D,L-buthionine sulfoximine 0.5 mM, 16 hours) is reported as 1 and the “Cellular glutathione level (relative value)” value (liver cells [10]; D,L-buthionine sulfoximine 0.3 mM alone) is reported as 17.
For `N[C@@H](CCC(=O)N[C@@H](CS)C(=O)O)C(=O)O` [γ-L-glutamyl-L-cysteine], the Cataract development rate [2, 12] was 66.7%, the Cataractous eye rate [2, 12] was 77.8% and the “Cellular glutathion level (relative value)” value (liver cells [3]; [14]) was 10. The Surviving rate (mouse newborns; [16]) was 75%, the Surviving rate (mouse newborns; [17]) was 0% and the “Effect on increment” value (mouse newborns) was “such effect was not seen”. For the same compound, the “GPT activity of culture supernatant” value (liver cells [5]) was 60 until/ml and the Survival rate (liver cells [5]) was 10%.
In the case of `ClC(Cl)(Cl)Cl` [carbon tetrachlodie, carbon tetrachloride, reference compound], the “Cellular glutathione level (relative value)” value (liver cells [9]; after carbon tetrachloride 0.5 μl/ml, 1 hour) is reported as 33.
With `N[C@@H](CCC(=O)N[C@@H](CS)C(=O)NCC(=O)O)C(=O)O` [Glutathione, glutathione] the Cataract development rate [2, 12] was 75.0%, the Cataractous eye rate [2, 12] was 70.8% and the “Cellular glutathion level (relative value)” value (liver cells [3]; [14]) was 10. For the same compound, the Surviving rate (mouse newborns; [16]) was 100%, the Surviving rate (mouse newborns; [17]) was 50% and the “Effect on increment” value (mouse newborns) was “such effect was not seen”. The “GPT activity of culture supernatant” value (liver cells [5]) was 60 until/ml, the Survival rate (liver cells [5]) was 10% and the “half life in blood” value [11] was “several minutes”.
In the case of `CCCCS(=N)(=O)CCC(N)C(=O)O` [L-buthionine sulfoximine, reference compound], the Cataract development rate [2, 18] is reported as 91.7%, the Cataractous eye rate [2, 18] is reported as 91.7% and the Surviving rate (mouse newborns; [18]) is reported as 100%.
Work on `CCOC(=O)[C@H](CSSC[C@H](NC(=O)CC[C@H](N)C(=O)O)C(=O)OCC)NC(=O)CC[C@H](N)C(=O)O` [γ-L-glutamyl-L-cystein ethyl ester of oxidized type dimer] yielded a Cataract development rate [2, 13] of 30.0%, a Cataractous eye rate [2, 13] of 35.0% and a Surviving rate (mouse newborns; [17]) of 100%.
